According to the OPERA property sets (Mansouri et al. 2018):

Q: Which logP does the source give for `CCc1csc(-c2ccc(C(C)C(=O)O)cc2F)n1` (stereo unspecified) here?
A: The logP was 4.16.

Q: Which logP does the source give for `CC(C(=O)O)c1ccc(-c2nccs2)c(F)c1` (stereo unspecified) here?
A: The logP was 3.14.

Q: With `Cc1csc(-c2ccc(C(C)C(=O)O)cc2Cl)n1` (stereo unspecified) as the compound, how does the logP read?
A: The logP was 3.65.

Q: With `CCCCc1csc(-c2ccc(C(C)C(=O)O)cc2Cl)n1` (stereo unspecified) as the compound, how does the logP read?
A: The logP was 5.36.

Q: Which logP does the source give for `Cc1csc(-c2ccc(C(C)C(=O)O)cc2)n1` (stereo unspecified) here?
A: Its logP is 3.03.

Q: Which logP does the source give for `CCCCc1csc(-c2ccc(C(C)C(=O)O)cc2)n1` (stereo unspecified) here?
A: The logP was 4.83.

Q: For `CC(C(=O)O)c1ccc(-c2nc(C(=O)N(C)C)cs2)cc1` (stereo unspecified), which logP is on record?
A: Its logP is 2.15.

Q: With `CCCCc1csc(-c2ccc(C(C)C(=O)O)cc2F)n1` (stereo unspecified) as the compound, how does the logP read?
A: Its logP is 5.24.

Q: For `Cc1cc(C(C)C(=O)O)ccc1-c1nccs1` (stereo unspecified), which logP is on record?
A: Its logP is 3.06.

Q: Which logP does the source give for `CC(C(=O)O)c1ccc(-c2nc(-c3ccccc3)cs2)cc1` (stereo unspecified) here?
A: Its logP is 4.95.

Q: For `CSc1cc(C(C)C(=O)O)ccc1-c1nccs1` (stereo unspecified), which logP is on record?
A: Its logP is 3.02.

Q: For `CC(C(=O)O)c1ccc(-c2nccs2)c(C(F)(F)F)c1` (stereo unspecified), which logP is on record?
A: Its logP is 3.06.

Q: For `CCc1cnc(-c2ccc(C(C)C(=O)O)cc2)s1` (stereo unspecified), which logP is on record?
A: Its logP is 3.72.

Q: For `CC(C)c1csc(-c2ccc(C(C)C(=O)O)cc2F)n1` (stereo unspecified), which logP is on record?
A: Its logP is 4.62.

Q: For `Cc1cnc(-c2ccc(C(C)C(=O)O)cc2F)s1` (stereo unspecified), which logP is on record?
A: Its logP is 3.55.

Q: Which logP does the source give for `CC(C)c1csc(-c2ccc(C(C)C(=O)O)cc2)n1` (stereo unspecified) here?
A: The logP was 4.29.

Q: With `CC(C(=O)O)c1ccc(-c2nccs2)cc1` (stereo unspecified) as the compound, how does the logP read?
A: Its logP is 2.79.

Q: Which logP does the source give for `CC(C(=O)O)c1ccc(-c2nc(C(F)(F)F)cs2)cc1` (stereo unspecified) here?
A: The logP was 3.78.

Q: For `CNC(=O)c1csc(-c2ccc(C(C)C(=O)O)cc2)n1` (stereo unspecified), which logP is on record?
A: Its logP is 2.45.

Q: For `CCc1nc(-c2ccc(C(C)C(=O)O)cc2)sc1C` (stereo unspecified), which logP is on record?
A: Its logP is 3.99.

Q: Which logP does the source give for `CCc1csc(-c2ccc(C(C)C(=O)O)cc2)n1` (stereo unspecified) here?
A: Its logP is 3.75.

Q: For `CCc1nc(-c2ccc(C(C)C(=O)O)cc2Cl)sc1C` (stereo unspecified), which logP is on record?
A: Its logP is 4.62.

Q: Which logP does the source give for `Cc1cnc(-c2ccc(C(C)C(=O)O)cc2Cl)s1` (stereo unspecified) here?
A: Its logP is 3.66.

Q: With `COCc1csc(-c2ccc(C(C)C(=O)O)cc2)n1` (stereo unspecified) as the compound, how does the logP read?
A: Its logP is 2.56.

Q: For `CC(C(=O)O)c1ccc(-c2nccs2)c([N+](=O)[O-])c1` (stereo unspecified), which logP is on record?
A: The logP was 2.06.

Q: With `CC(C)c1csc(-c2ccc(C(C)C(=O)O)cc2Cl)n1` (stereo unspecified) as the compound, how does the logP read?
A: The logP was 4.78.

Q: With `C=Cc1csc(-c2ccc(C(C)C(=O)O)cc2)n1` (stereo unspecified) as the compound, how does the logP read?
A: The logP was 3.62.

Q: For `CC(C(=O)O)c1ccc(-c2nc(C(N)=O)cs2)cc1` (stereo unspecified), which logP is on record?
A: Its logP is 2.17.

Q: For `Cc1cnc(-c2ccc(C(C)C(=O)O)cc2)s1` (stereo unspecified), which logP is on record?
A: The logP was 3.15.

Q: Which logP does the source give for `CC(C(=O)O)c1ccc(-c2nc(CO)cs2)cc1` (stereo unspecified) here?
A: The logP was 2.25.

Q: Which logP does the source give for `CCc1cnc(-c2ccc(C(C)C(=O)O)cc2F)s1` (stereo unspecified) here?
A: Its logP is 4.1.

Q: With `CC(=O)c1csc(-c2ccc(C(C)C(=O)O)cc2)n1` (stereo unspecified) as the compound, how does the logP read?
A: Its logP is 2.65.

Q: With `CC(C(=O)O)c1ccc(-c2nccs2)c(N)c1` (stereo unspecified) as the compound, how does the logP read?
A: The logP was 2.45.

Q: With `CC(C(=O)O)c1ccc(-c2nccs2)c(Br)c1` (stereo unspecified) as the compound, how does the logP read?
A: The logP was 3.35.

Q: With `COc1cc(C(C)C(=O)O)ccc1-c1nccs1` (stereo unspecified) as the compound, how does the logP read?
A: Its logP is 2.47.

Q: With `CCc1nc(-c2ccc(C(C)C(=O)O)cc2F)sc1C` (stereo unspecified) as the compound, how does the logP read?
A: The logP was 4.44.

Q: Which logP does the source give for `Cc1nc(-c2ccc(C(C)C(=O)O)cc2)sc1C` (stereo unspecified) here?
A: Its logP is 3.36.

Q: For `CC(C(=O)O)c1ccc(-c2nccs2)c(O)c1` (stereo unspecified), which logP is on record?
A: The logP was 3.18.

Q: Which logP does the source give for `CC(C(=O)O)c1ccc(-c2nc3c(s2)CCCC3)cc1` (stereo unspecified) here?
A: The logP was 4.41.

Q: For `Cc1nc(-c2ccc(C(C)C(=O)O)cc2F)sc1C` (stereo unspecified), which logP is on record?
A: Its logP is 3.74.

Q: With `CC(C(=O)O)c1ccc(-c2nccs2)c(Cl)c1` (stereo unspecified) as the compound, how does the logP read?
A: The logP was 3.39.

Q: For `CCc1csc(-c2ccc(C(C)C(=O)O)cc2Cl)n1` (stereo unspecified), which logP is on record?
A: Its logP is 4.28.

Q: For `Cc1csc(-c2ccc(C(C)C(=O)O)cc2F)n1` (stereo unspecified), which logP is on record?
A: The logP was 3.52.

Q: Which logP does the source give for `CCc1cnc(-c2ccc(C(C)C(=O)O)cc2Cl)s1` (stereo unspecified) here?
A: Its logP is 4.39.

Q: For `Cc1nc(-c2ccc(C(C)C(=O)O)cc2Cl)sc1C` (stereo unspecified), which logP is on record?
A: Its logP is 3.94.

Q: For `C=CCc1csc(-c2ccc(C(C)C(=O)O)cc2)n1` (stereo unspecified), which logP is on record?
A: Its logP is 4.11.
